Reference: EP0639585A1, “Elastase inhibitor” (BANYU PHARMACEUTICAL CO., LTD., priority 1993, dated 1995)

target: T1, human leukocyte elastase (Homo sapiens, UniProt P08246); assay: Elastase inhibition activity (fluorogenic substrate N-methoxy succinyl-L-alanyl-L-alanyl-L-prolyl-L-valine 4-methylcoumaryl-7-amide); assay type: biochemical; conditions: 0.2M tris buffer pH8.5, 1M sodium chloride, 40µM substrate, 37° C, 20 minutes incubation; read-out: IC₅₀
T1 sequence (P08246 30-267): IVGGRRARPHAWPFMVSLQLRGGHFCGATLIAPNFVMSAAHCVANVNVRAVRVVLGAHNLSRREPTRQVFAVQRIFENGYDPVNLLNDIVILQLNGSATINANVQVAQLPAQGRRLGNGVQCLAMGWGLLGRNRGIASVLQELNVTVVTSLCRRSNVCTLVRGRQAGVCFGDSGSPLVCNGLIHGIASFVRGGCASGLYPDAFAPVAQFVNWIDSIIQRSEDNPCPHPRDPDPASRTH
Procedure: The inhibition activities to human leukocyte elastase were determined as follows: Each 1µl of DMSO solution of the compound and DMSO (for reference) were added to each 250µl of 0.2M tris buffer solutions (pH8.5) containing 40µM N-methoxy succinyl-L-alanyl-L-alanyl-L-prolyl-L-valine 4-methylcoumaryl-7-amide and 1M sodium chloride, and the mixtures were pre-incubated at 37° C for three minutes. Then 50µl of 0.2M tris buffer solutions (pH8.5) containing 0.2µg/ml human leukocyte elastase were added to the mixtures and the mixtures were incubated at 37° C for 20 minutes. Each 1ml of 2M acetic acid aqueous solutions were added to the mixture and the reactions were stopped and then fluorescences of the supernatants were measured and the activities were calculated. As the results, IC₅₀ values were as follows: the compound 6 = 0.78µM, the compound 4 = 6.32µM, the compound 1 = 8.48µM and the compound 5 = 9.94µM.

| IC50 [µM] | SMILES |
| --- | --- |
| 8.48 | CCC[C@H](NC(=O)[C@@H]1CCCN1C(=O)[C@H](CC(C)C)NC(C)=O)C(=O)C(=O)Cc1ccccc1 [Compound 1, (4S)-4-(N-acetyl-L-leucyl-L-prolyl)amino-1-phenyl-2,3-heptanedione] |
| 6.32 | CCC[C@H](NC(=O)[C@@H]1CCCN1C(=O)[C@H](CC(C)C)NC(=O)OCc1ccccc1)C(=O)C(=O)CC1CCCCC1 [Compound 4, (4S)-4-(N-benzyloxycarbonyl-L-leucyl-L-prolyl)amino-1-cyclohexyl-2,3-heptanedione] |
| 9.94 | CCC[C@H](NC(=O)[C@@H]1CCCN1C(=O)[C@H](CC(C)C)NC(=O)OCc1ccccc1)C(=O)C(=O)CCC1CCCCC1 [Compound 5, (5S)-5-(N-benzyloxycarbonyl-L-leucyl-L-prolyl)amino-1-cyclohexyl-3,4-octanedione] |
| 0.78 | CCC[C@H](NC(=O)[C@@H]1CCCN1C(=O)[C@H](CC(C)C)NC(=O)OCc1ccccc1)C(=O)C(=O)Cc1ccccc1 [Compound 6, (4S)-4-(N-benzyloxycarbonyl-L-leucyl-L-prolyl)amino-1-phenyl-2,3-heptanedione] |
